# Results reported in patent US20220323761A1, “METHOD FOR INDUCING HIBERNATION-LIKE STATE AND DEVICE SAME” (University of Tsukuba, priority 2019, published 2022).
# Legend:
# adenosine A1 receptor = target: T1, adenosine A1 receptor (Mus musculus, UniProt Q60612); assay: Metabolic state induced by IP CHA in wild-type mice; assay type: in vivo
# T1 construct: endogenous in cells; host or cells: whole mouse, in vivo (intraperitoneal CHA)
# T1 sequence (Q60612 1-326): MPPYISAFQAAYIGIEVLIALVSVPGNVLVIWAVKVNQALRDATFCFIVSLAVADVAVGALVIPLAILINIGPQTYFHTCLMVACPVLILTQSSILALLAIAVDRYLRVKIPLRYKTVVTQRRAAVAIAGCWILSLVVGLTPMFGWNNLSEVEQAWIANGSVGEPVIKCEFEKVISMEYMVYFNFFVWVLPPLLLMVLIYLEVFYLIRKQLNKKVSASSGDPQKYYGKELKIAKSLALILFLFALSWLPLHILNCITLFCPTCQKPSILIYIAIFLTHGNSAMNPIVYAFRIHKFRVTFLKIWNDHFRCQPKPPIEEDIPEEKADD
# Excerpt: In order to record the core body temperature, oxygen consumption amount, EEG, ECG, and respiratory patterns, each animal was housed in a temperature controlled chamber (HC-100, Shin Factory or LP-400P-AR, Nippon Medical & Chemical Instruments Co., Ltd.). In order to continuously record the TB (intraperitoneal temperature), a telemetry temperature sensor (TA11TA-F10, DSI) was implanted into the animal's abdominal cavity under general inhalation anesthesia at least 7 days prior to the recording. The VO 2 and carbon dioxide discharge rate (VCO2) of the animal were continuously recorded using a respiratory gas analyzer (ARCO-2000 mass spectrometer, ARCO System). The respiratory quotient was calculated from the ratio of VCO2/VO2.
# The Dreadd agonist CNO (clozapine N-oxide, Abcam, ab141704) was dissolved in physiological saline at a dose of 100 μg/mL, and the solution was frozen at −20° C. The CNO solution was thawed on site and then administered to each mouse intraperitoneally at a dose of 1 mg/kg. The adenosineAl receptor agonist CHA (N^6-cyclohexyl adenosine, Sigma-Aldrich, C9901) was dissolved in physiological saline at a concentration of 250 μg/mL, and the solution was administered intraperitoneally to each mouse at a dose of 2.5 mg/kg.
# [1] = administered centrally; cited from earlier work
Compound,"induction of hypothermic/hypometabolic state (adenosine A1 receptor; IP 2.5 mg/kg, wild-type mice)","reaction to low TA through behavior (posture and shivering) or increase in VO2 (adenosine A1 receptor; TA 12° C., IP 2.5 mg/kg)",TB and VO2 at lowered TA (adenosine A1 receptor; TA set to 12° C.),TB compared with QIH (adenosine A1 receptor; at 20°),heart rate and blood pressure [1],sympathetic nerve outflow [1]
"OC[C@H]1O[C@@H](n2cnc3c(NC4CCCCC4)ncnc32)[C@H](O)[C@@H]1O [CHA, N^6-cyclohexyl adenosine]",effectively induced a hypothermic/hypometabolic state,did not react,further reduced,tends to be higher,–,–
"pyroglutamylated RFamide peptide (QDEGSEATGFLPAAGEKTSGPLGNLAEELNGYSRKKGGFSFRF; QRF-amide; UniProt P83859 91-133, looked up) [Qrfp, hypothalamic neuropeptide, endogenous ligand of the orphan G-protein-coupled receptor hGPR103]",–,–,–,–,increase,increases
